Here are results for four molecules from US20220031848A1, “BIOINK FOR 3D DEPOSITION” (Regents of the University of Minnesota, priority 2018, published 2022).

One experiment relates to printed heart. The experiment is described as follows: Fluid pressure in ventricular-like chamber of the printed heart (FIG. 11A). Type of experiment: cell-based. The following applies: versus spontaneous mechanical activity of the same chamber. From the text: FIG. 11A is a graph of pressure dynamics of an example printed heart using bioink described herein. […] The relatively flat line is the system baseline without contraction. Other clinically-important, physiologically complex mechanical parameters can also be measured. FIG. 11B is an optical map of an example printed heart using bioink described herein.

Experiment [1] has as its system differentiated hiPSCs in the printed heart. The experiment is described as follows: Calcium traces of the printed heart, first experiment (FIG. 9). Type of experiment: cell-based, human. The following applies: complex printed heart (FIG. 9).
Experiment [2] concerns hChaMPs. The experiment is described as follows: Calcium transients in hChaMPs (Fluo-4 AM), drug response. The experiment is classed as cell-based, human. On the procedure: Calcium movement in hChaMPs was recorded after recovery from lactate treatment using a DMi8 fluorescence microscope (Leica, Wetzlar, Germany). hChaMPs were first cultured with 5 μM Fluo-4 acetoxymethyl ester for 30 min at 37° C. and then washed with Tyrode's salt solution for another 30 min at 37° C. After that, the plates with hChaMPs were moved onto the microscope stage and covered with a heating plate to maintain the temperature at 37° C. Fluo-4 AM intensity was recorded at a frame rate of 6.90 Hz with 30 ms exposure time. The acquired data was processed by Fiji and a custom-written script in MATLAB (MathWorks). To generate the calcium traces, background signals of nonactive regions were subtracted from fluorescence signals of beating sites and then normalized against the baseline intensity. The effects of ionotropic drugs on calcium activity of hChaMPs were also analyzed by incubating Fluo-4 AM-treated hChaMPs with 1 μM Isoproterenol or 0.5 μM Verapamil for 10 min at 37° C. prior to being imaged. Calcium transients are presented as normalized intensity (f/f0) over time, along with the average peak amplitude and the average interspike interval.

Experiment [3] has as its system hChaMPs. The experiment is described as follows: Contractility video analysis of hChaMPs. Type of experiment: cell-based. The following applies: Homo sapiens; at least 3 different areas across 2 hChaMPs (FIG. 38); read-out: EC50, beat rate by contractility. The source says:
Beating videos of hChaMPs were obtained at 4× on an Axiovert CFL 40 microscope at 8.7 frames per second. Beating rates (contraction, relaxation, and beats per minute) were obtained using an open source automated video analysis algorithm^4 with a macroblock size of 100×100 pixels and a maximum movement detection of 50 pixels to accommodate the robust movement of the tissue. For generation of a heat map of contractility over an entire hChaMP, a macroscale video was used with the macroblock size set to 25×25 pixels in the video analysis algorithm with a maximum movement detection of 20 pixels due to the lower magnification.

For experiment [4], the system named is hChaMP. The experiment is described as follows: Pressure-volume catheter measurement in hChaMP. Type of experiment: cell-based, human. The following applies: 1 μM versus spontaneous contraction, 5 contraction cycles (FIGS. 44A, 44B). On the procedure:
Pulse pressure and stroke volume of hChaMPs were measured using an ADV500 PV system with a PV catheter. The hChaMP was transferred to a 10 cm dish with 20 mL RPMI plus B-27 Supplement with insulin on a heating plate pre-heated to 37° C. to ensure the working temperature was always above 30° C. The PV catheter was inserted and positioned close to the apex of hChaMP to obtain clear pressure and volume signals, and the vessel through which the catheter was inserted was tied off to stabilize the construct. Isoproterenol was given by adding 20 μL of 1 mM solution into the dish to achieve the final concentration of 1 μM. […] The volume reading was further calibrated by conducting a dye dilution test. Briefly, acellular hChaMPs were first monitored by the ADV500 PV system while being compressed and released by 1.45 mm, 2.9 mm, and 4.35 mm from the side. […] Next, the hChaMP was compressed and released by 1.45 mm depth from the side for 3 times, and the hChaMP was then removed and the bulk medium was collected and examined by a Cytation 3 microplate reader at 524 nm for absorbance from which the displaced volume could be determined. […]
The acquired data was post-processed and analyzed by a custom-written script in MATLAB. […] To examine the stroke work generated by the hChaMPs, 5 random contraction cycles were used for creating PV loops and the stroke work was determined by the area in the loops.

Experiment [5] deals with hChaMP. The experiment is described as follows: Optical mapping of voltage in hChaMP (di-4-ANEPPS). Type of experiment: cell-based, human. The following applies: 1 μM (FIG. 35B). Here is the method:
The hChaMP was immersed in a 10 μM solution of the voltage-sensitive dye di-4-ANEPPS in Krebs-Ringer Buffer for 20 min. After this incubation, half of the dye solution was removed and replaced with RPMI+B27 with insulin media. After 2-5 min stabilization, hChaMPs were excited with a two diode-pumped, continuous-excitation green laser (532 nm, 1 W), and fluorescence intensity was recorded for 15 seconds using 14-bit, 80×80-pixel resolution cameras at 500 frames per second. In some hChaMPs, pacing was provided at 1 and 2 Hz via a bipolar electrode and optical mapping movies were recorded during pacing. For drug testing, hChaMPs were treated with 1 μM of isoproterenol and optical mapping movies were recorded with and without pacing.
Optical action potential duration (APD) was measured at 80% repolarization, and two-dimensional (2D) APD maps were constructed to reveal the spatial distribution of APD on the hChaMP surface. Local conduction velocity (CV) was calculated as described previously. Specifically, the distributions of activation times (AT), measured at (dV/dt)max, for the spatial regions of 3×3 pixels were fitted with the plane, and gradients of activation times gx and gy were calculated for each plane along the x- and y-axes, respectively. The magnitude of the local CV was calculated for each pixel as (gx^2+gy^2)^−1/2. Mean values for CV were calculated for the visible surface. […]

Regarding `Cc1ccc2c(c1)C(=O)C1(O)CCN(c3ccccc3)C1=N2` (stereo not drawn) [blebbistatin], the chamber pressure amplitude entry with printed heart is “inhibited pressure amplitudes”.
On to `COc1ccc(CCN(C)CCCC(C#N)(c2ccc(OC)c(OC)c2)C(C)C)cc1OC` (stereo not drawn) [verapamil], for which the “beating rate with respect to control” value in experiment [1] is “slow”. Further, in the experiment with hChaMPs [2] (0.5 μM, 10 min at 37° C.), the calcium handling amplitude entry is given as “decreased in amplitude”.
Consider `Cn1c(=O)c2c(ncn2C)n(C)c1=O` [caffeine], for which, in experiment [1], the “beating rate with respect to control” value is given as “accelerate”.
With `CC(C)NCC(O)c1ccc(O)c(O)c1` (stereo not drawn) [isoproterenol], the EC50 (commonly the concentration at which the effect is half-maximal) was found to be 9 nM in the experiment on hChaMPs [3] and 9 nM with hChaMPs [2] (Homo sapiens, 5 different areas across two hChaMPs (FIG. 31), read-out: EC50, beat rate by calcium transient activity). Besides, the stroke work entry with hChaMP [4] is recorded as “reduced”. Moreover, in the experiment on hChaMP [5], the “response of electrical activity to drug stimulation” value is “responded in a dramatic and predicted fashion”. Besides, in the experiment on hChaMPs [2] (1 μM, 10 min at 37° C.), the calcium handling frequency result is reported as “increased in frequency”.
